# Experimental data from patent publication US5741782A, “Antibiotic cocktail and method of use” (Cryolife, Inc., priority 1996, dated 1998).
# “And” between values parts separate entries of the source, which are not always exact repeats. Equal entries are not always repeated. Where two headings read alike, the source gives them in different places.
# How the values were obtained:
# [1] = tested on: valve leaflet fibroblasts; settings: for AVG incorporation of 3H-glycine: Example 10; for percent of control: Example 2
# Procedure: (§1) Preferably, however, the tissue is incubated with a radioactively-labeled amino acid, and the incorporation of the amino acid into proteins is monitored by counting disintegrations per minute (DPM) per unit of tissue.
# (§2) All of the valve leaflet halves were incubated for 48 hours at 37° C. in the antibiotic cocktails and then cryopreserved.
# (§3) Experiment #2: Paired halves of leaflets were again used. One half was used as a fresh control and immediately labelled with ^3 H-glycine to determine leaflet fibroblast viability (see below). […] The antibiotic-treated leaflets were incubated for 48 hours at 37° C. in the antibiotic cocktails and then cryopreserved.
# (§4) A 1.8 ml Nalge cryovial was used to contain the leaflet tissue. The freezing program takes the tissue from +4° to -80° C. in approx 80 to 90 minutes.
# (§5) The valve leaflet halves were stored in liquid nitrogen freezer for at least two days, but no more than three weeks, before being thawed.
# (§6) The valve leaflet halves were thawed by removing the valve tissue to be thawed from the liquid nitrogen freezer. As quickly as possible, the tissue was transferred to a 37° C. waterbath. When all of the ice had dissolved (about 2 minutes), the cryovial was transferred to a hood, and 4 ml of room temperature lactated Ringers plus 5% dextrose (DBLR) was dispensed into a 5-ml snap-cap tube (Falcon) for each cryovial being thawed. The exterior of the cryovial was rinsed with 70% isopropanol and any excess wiped away before opening. Using sterile forceps, the leaflet tissue was transferred into the tube containing the DBLR. The tissue was allowed to remain in D5LR for 5 minutes.
# (§7) Tissue viability was assessed by the measurement of ^3 H-glycine incorporation into proteins as follows. The thawed valve leaflet halves were placed in snap-cap tubes (Falcon) containing 16 μCi of tritiated-glycine (DuPont New England Nuclear) in 1 ml of DMEM supplemented with 15 μg/ml ascorbic acid. Radiolabeled glycine incorporation was determined after a 48 hour incubation at 37° C. in an atmosphere consisting of 5% carbon dioxide in air. The tissue was then washed four times with phosphate-buffered saline, dehydrated with ethanol and ether, air dried and weighed. The tissue samples were then rehydrated with 200 μl of water and solubilized by the addition of 500 μl of 1M NaOH. After incubation at 60° C. for 1 hour, the samples were sonicated twice for 20-seconds. […] The filter discs were dried, and the proteins precipitated by addition of ice-cold 10% trichloroacetic acid for 30 minutes. This was followed by five ethanol rinses, two ether rinses, and drying. The discs were then placed in 10 ml of scintillation fluid (Cytoscint ES, ICN Biomedicals, Inc., Irvine, Calif.). Tritium incorporation was measured by scintillation counting using a LS1701 (Beckman Instruments, Inc., Palo Alto, Calif.).
# (§8) The incorporation of ^3 H-glycine into proteins is expressed in disintegrations per minute (DPM) per mg of dry tissue.
# yeast isolates = assay: yeast challenge of antibiotic cocktails, overall; format: cell-based; settings: for fungicidal activity (in words): Example 16, ten donor tissue isolates, 24 hours; for antiyeast activity at doses which maintain tissue viability (in words): summary of Examples 14 and 15
# Excerpt: The ten yeast isolates tested were:
# [2] = tested on: cells responsible for allograft longevity in patients; settings: literature: Hu et al., Lange and Hopkins, McNally and Brockbank; cited from earlier work
# [3] = tested on: Candida albicans ATCC strain 14053; assay: survival of Candida albicans in antifungal cocktails (membrane filtration enumeration); format: cell-based; settings: Example 14; for fungicidal activity (in words): Tube B, fluconazole 100 μg/ml, amphotericin B 0.6 μg/ml, or fluconazole 100 + amphotericin B 0.3 μg/ml; for surviving yeast, Tube B: Tube B (734 CFU/ml at time zero), 35° C.
# Procedure: The Candida albicans used in these studies was ATCC strain 14053 (American Type Culture Collection). The purity of the strain was verified before and after cultivation.
# The test organism was cultured on a Sabouraud Agar Plate, streaked for isolation, and incubated at 35° C. for 24 hours. A single colony was removed using a sterile cotton swab and placed in 5.0 ml of sterile saline. The mixture was vortexed, and dilutions were made and compared to a standard turbidity chart until the turbidity matched a 0.5 turbidity standard (a 0.5 MacFarland turbidity standard suspension). Serial dilutions were made as follows: (1) 0.5 ml of the 0.5 MacFarland turbidity standard was added to 4.5 ml of sterile normal saline (Tube A; expected population 10^5 cfu/ml); (2) 0.1 ml of the Tube A suspension was added to 9.9 ml of sterile normal saline (Tube B; expected population 10^3 cfu/ml); and (3) 0.1 ml of the Tube B suspension was added to 9.9 ml of sterile normal saline (Tube C; expected population 10 cfu/ml). Each serial dilution was vortexed for 30 seconds before the next transfer.
# Tubes B and C were challenged with these cocktails. Each cocktail (24.0 ml) was placed into a sterile 115 ml plastic cup, and 1.0 ml of the yeast population from Tube B or C was added. The cups were mixed gently, capped and placed in the incubator for 24 hours at 35° C. After the prescribed incubation period, 1.0 ml of the yeast-cocktail mixture was removed from each tube and processed to obtain an enumeration of the surviving yeast organisms. The remaining mixture was placed back into the incubator and incubated for an additional 24 hours. After this incubation period, the cups were removed, swirled gently and 1.0 ml was removed, and the above process was repeated.
# Enumeration of the yeast was performed as follows; each sample was tested in duplicate, One milliliter (1.0 ml) of year suspension was added to the top assembly of a sterile disposable filter apparatus which contained 99 ml of sterile normal saline. The contents were mixed gently and filtered. The filter pad was removed aseptically using sterile disposable forceps and placed on Sabouraud Agar plates. The plates were incubated at 35° C. for 24 hours, and the colonies were then counted.
# in vitro = settings: human, heart valve leaflets, AVG % CONTRL, Example 3
# Procedure: as §1, §2, §3, §4, §5, §6, §7, §8
# bacteria = settings: general statement; cited from earlier work
# [4] = tested on: valve leaflet fibroblasts; assay: cells; settings: Homo sapiens, Fibroblast, read-out: AVG percent of control, Example 2
# Procedure: as §1, §2, §3, §4, §5, §6, §7, §8
smiles,measurement,setting,value
"C[C@@H]1[C@H](O)[C@@H](C)/C=C/C=C/C=C/C=C/C=C/C=C/C=C/[C@H](O[C@@H]2O[C@H](C)[C@@H](O)[C@H](N)[C@@H]2O)C[C@@H]2O[C@](O)(C[C@@H](O)C[C@@H](O)[C@H](O)CC[C@@H](O)C[C@@H](O)CC(=O)O[C@H]1C)C[C@H](O)[C@H]2C(=O)O [Amphotericin B, amphotericin B]",average viability (in words),"[1]; Example 5, 0.3 μg/ml amphotericin B in the antibiotic mixture",average viability greater than the control
same,MEAN incorporation of 3H-glycine,"[1]; Example 11, 0.3 μg/ml amphotericin B, 24 hours",4965 DPM/mg
same,MEAN incorporation of 3H-glycine,"[1]; Example 11, 0.6 μg/ml amphotericin B, 24 hours",4960 DPM/mg
same,MEAN incorporation of 3H-glycine,"[1]; Example 11, 1.0 μg/ml amphotericin B, 24 hours",4914 DPM/mg
same,MEAN incorporation of 3H-glycine,"[1]; Example 11, 2.0 μg/ml amphotericin B, 24 hours",4236 DPM/mg
same,MEAN incorporation of 3H-glycine,"[1]; Example 11, 3.0 μg/ml amphotericin B, 24 hours",4452 DPM/mg
same,fungicidal activity (in words),yeast isolates,shows greater fungicidal activity
same,antiyeast activity at doses which maintain tissue viability (in words),yeast isolates,"Neither amphotericin B, nor fluconazole, alone substantially inhibits yeast growth at doses which substantially maintain tissue viability"
same,toxicity (in words),[2],toxic to the cells responsible for allograft longevity in patients
same,fungicidal activity (in words),[3],fungicidal
"C[C@@H](O)[C@H]1C(=O)N2C(C(=O)O)=C(SCCN=CN)C[C@H]12 [Imipenem, imipenem]",viability,in vitro; 12 μg/ml imipenem + rifampin 10 μg/ml,86%
same,viability,in vitro; 24 μg/ml imipenem + rifampin 10 μg/ml,90%
same,viability,in vitro; 48 μg/ml imipenem + rifampin 10 μg/ml,104%
same,MEAN incorporation of 3H-glycine,"[1]; Example 8, 48 μg/ml imipenem, 24 h",5269 DPM/mg
same,MEAN incorporation of 3H-glycine,"[1]; Example 8, 48 μg/ml imipenem, 48 h",5316 DPM/mg
same,MEAN incorporation of 3H-glycine,"[1]; Example 8, 72 μg/ml imipenem, 24 h",6897 DPM/mg
same,MEAN incorporation of 3H-glycine,"[1]; Example 8, 72 μg/ml imipenem, 48 h",7198 DPM/mg
same,MEAN incorporation of 3H-glycine,"[1]; Example 8, 96 μg/ml imipenem, 24 h",5885 DPM/mg
same,MEAN incorporation of 3H-glycine,"[1]; Example 8, 96 μg/ml imipenem, 48 h",6526 DPM/mg
same,antibacterial activity (in words),bacteria,active against most aerobic gram-positive and gram-negative bacteria and most anaerobic gram-positive and gram-negative bacteria
"CCN[C@@H]1C[C@H](N)[C@@H](O[C@H]2OC(CN)=CC[C@H]2N)[C@H](O)[C@H]1O[C@H]1OC[C@](C)(O)[C@H](NC)[C@H]1O [Netilmicin, netilmicin]",AVG incorporation of 3H-glycine,"[1]; 20 μg/ml netilmicin, 24 hours",4213 DPM/mg
same,AVG incorporation of 3H-glycine,"[1]; 30 μg/ml netilmicin, 24 hours",6805 DPM/mg
same,AVG incorporation of 3H-glycine,"[1]; 50 μg/ml netilmicin, 24 hours",5815 DPM/mg
same,fungicidal activity (in words),yeast isolates,did not have any adverse effects on the fungicidal activity of fluoconazole and amphotericin B
same,antibacterial activity (in words),bacteria,effective against many aerobic gram-negative bacteria and some aerobic gram-positive bacteria
same,lack of antibacterial activity (in words),bacteria,inactive against most streptococci and most anaerobic bacteria
"CO[C@H]1/C=C/O[C@@]2(C)Oc3c(C)c(O)c4c(O)c(c(/C=N/N5CCN(C)CC5)c(O)c4c3C2=O)NC(=O)/C(C)=C\C=C\[C@H](C)[C@H](O)[C@@H](C)[C@@H](O)[C@@H](C)[C@H](OC(C)=O)[C@@H]1C [Rifampin, rifampin]",percent of control,[1]; 10 μg/ml rifampin,96% and 110% and 91% and 75% and 73% and 114%
same,percent of control,[1]; 30 μg/ml rifampin,94%
same,activity at 10 µg/mL,[4]; 10 μg/ml rifampin,93%
same,activity at 30 µg/mL,[4]; 30 μg/ml rifampin,80%
same,activity at 100 µg/mL,[4]; 100 μg/ml rifampin,42%
"CN[C@H](CC(C)C)C(=O)N[C@H]1C(=O)N[C@@H](CC(N)=O)C(=O)N[C@H]2C(=O)N[C@H]3C(=O)N[C@H](C(=O)N[C@H](C(=O)O)c4cc(O)cc(O)c4-c4cc3ccc4O)[C@H](O)c3ccc(c(Cl)c3)Oc3cc2cc(c3O[C@@H]2O[C@H](CO)[C@@H](O)[C@H](O)[C@H]2O[C@H]2C[C@](C)(N)[C@H](O)[C@H](C)O2)Oc2ccc(cc2Cl)[C@H]1O [Vancomycin, vancomycin]",antibacterial activity (in words),bacteria,"active against many gram-positive organisms, including staphylococci, streptococci, enterococci, Clostridium and Corynebacterium"
same,lack of antibacterial activity (in words),bacteria,inactive against gram-negative bacteria
"OC(Cn1cncn1)(Cn1cncn1)c1ccc(F)cc1F [Fluconazole, fluconazole]",viability after treatment (in words),"[1]; Example 1, 100 μg/ml fluconazole added",not harmful to the tissue
same,fungicidal activity (in words),yeast isolates,did not affect the fungicidal activity greatly
same,antiyeast activity at doses which maintain tissue viability (in words),yeast isolates,"Neither amphotericin B, nor fluconazole, alone substantially inhibits yeast growth at doses which substantially maintain tissue viability"
same,"surviving yeast, Tube B",[3]; 24 hr,31 colonies
same,"surviving yeast, Tube B",[3]; 48 hr,45 colonies
same,fungicidal activity (in words),[3],suggests a tolerance or static phenomenon
